Measured values from patent US20240238242A1, “EGCG buccal tablet and use thereof” (priority 2023, published 2024).
Where two headings read alike, the source gives them in different places.

Tests used:
[1] = rats, intragastric decaffeinated green tea (DGT) 200 mg/kg; cited from earlier work
[2] = system: SARS-CoV-2/C57MA14; design: species or system BALB/c mice; conditions: mouse, in vivo
[3] = system: Novel enterovirus D68 (EV-D68); assay type: cell-based; conditions: for CPE test per cell well: first experiment; for CPE test (virus replication in cell wells) / CPE test (virus replication in the cell wells): wells 1-10; for average inactivation efficiency against virus: 0.2 mM EGCG, EV-D68 virus, three experiments

O=C(O[C@@H]1Cc2c(O)cc(O)cc2O[C@@H]1c1cc(O)c(O)c(O)c1)c1cc(O)c(O)c(O)c1 [EGCG, Epigallocatechin gallate]
bioavailability of EGCG [1]: 0.1% | mice protected from death caused by lethal dose infection [2]: 60% | viral nucleic acid loads in lungs and turbinates [2]: significantly reduce | CPE test per cell well ([3]; 0.2 mM EGCG + EV-D68 virus, 1 minute, dilution factor 10^1, wells 1-10): + | CPE test per cell well ([3]; 0.2 mM EGCG + EV-D68 virus, 1 minute, dilution factor 10^2, wells 1-10): + | CPE test per cell well ([3]; 0.2 mM EGCG + EV-D68 virus, 1 minute, dilution factor 10^3, wells 1-10): + | CPE test per cell well ([3]; 0.2 mM EGCG + EV-D68 virus, 1 minute, dilution factor 10^4, wells 1-10): + | CPE test per cell well ([3]; 0.2 mM EGCG + EV-D68 virus, 1 minute, dilution factor 10^5, wells 1-10): + | CPE test per cell well ([3]; 0.2 mM EGCG + EV-D68 virus, 1 minute, dilution factor 10^6, wells 1-10): − and + | CPE test per cell well ([3]; 0.2 mM EGCG + EV-D68 virus, 1 minute, dilution factor 10^7, wells 1-10): − and + | CPE test per cell well ([3]; 0.2 mM EGCG + EV-D68 virus, 1 minute, dilution factor 10^8, wells 1-10): − | CPE test (virus replication in cell wells) ([3]; 0.2 mM EGCG + EV-D68 virus, co-incubated 5 minute, third experiment, dilution factor 10^1): + | CPE test (virus replication in cell wells) ([3]; 0.2 mM EGCG + EV-D68 virus, co-incubated 5 minute, third experiment, dilution factor 10^2): + | CPE test (virus replication in cell wells) ([3]; 0.2 mM EGCG + EV-D68 virus, co-incubated 5 minute, third experiment, dilution factor 10^3): + | CPE test (virus replication in cell wells) ([3]; 0.2 mM EGCG + EV-D68 virus, co-incubated 5 minute, third experiment, dilution factor 10^4): + | CPE test (virus replication in cell wells) ([3]; 0.2 mM EGCG + EV-D68 virus, co-incubated 5 minute, third experiment, dilution factor 10^5): + | CPE test (virus replication in cell wells) ([3]; 0.2 mM EGCG + EV-D68 virus, co-incubated 5 minute, third experiment, dilution factor 10^6): + and − | CPE test (virus replication in cell wells) ([3]; 0.2 mM EGCG + EV-D68 virus, co-incubated 5 minute, third experiment, dilution factor 10^7): − | CPE test (virus replication in cell wells) ([3]; 0.2 mM EGCG + EV-D68 virus, co-incubated 5 minute, third experiment, dilution factor 10^8): − | CPE test (virus replication in cell wells) ([3]; 0.2 mM EGCG + virus, 1 minute, dilution factor 10^1, second experiment): + | CPE test (virus replication in cell wells) ([3]; 0.2 mM EGCG + virus, 1 minute, dilution factor 10^1, third experiment): + | CPE test (virus replication in cell wells) ([3]; 0.2 mM EGCG + virus, 1 minute, dilution factor 10^2, second experiment): + | CPE test (virus replication in cell wells) ([3]; 0.2 mM EGCG + virus, 1 minute, dilution factor 10^2, third experiment): + | CPE test (virus replication in cell wells) ([3]; 0.2 mM EGCG + virus, 1 minute, dilution factor 10^3, second experiment): + | CPE test (virus replication in cell wells) ([3]; 0.2 mM EGCG + virus, 1 minute, dilution factor 10^3, third experiment): + | CPE test (virus replication in cell wells) ([3]; 0.2 mM EGCG + virus, 1 minute, dilution factor 10^4, second experiment): + | CPE test (virus replication in cell wells) ([3]; 0.2 mM EGCG + virus, 1 minute, dilution factor 10^4, third experiment): + | CPE test (virus replication in cell wells) ([3]; 0.2 mM EGCG + virus, 1 minute, dilution factor 10^5, second experiment): + | CPE test (virus replication in cell wells) ([3]; 0.2 mM EGCG + virus, 1 minute, dilution factor 10^5, third experiment): + | CPE test (virus replication in cell wells) ([3]; 0.2 mM EGCG + virus, 1 minute, dilution factor 10^6, second experiment): − and + | CPE test (virus replication in cell wells) ([3]; 0.2 mM EGCG + virus, 1 minute, dilution factor 10^6, third experiment): − and + | CPE test (virus replication in cell wells) ([3]; 0.2 mM EGCG + virus, 1 minute, dilution factor 10^7, second experiment): − and + | CPE test (virus replication in cell wells) ([3]; 0.2 mM EGCG + virus, 1 minute, dilution factor 10^7, third experiment): − and + | CPE test (virus replication in cell wells) ([3]; 0.2 mM EGCG + virus, 1 minute, dilution factor 10^8, second experiment): − | CPE test (virus replication in cell wells) ([3]; 0.2 mM EGCG + virus, 1 minute, dilution factor 10^8, third experiment): − | CPE test (virus replication in the cell wells) ([3]; 0.2 mM EGCG + virus, co-incubated 5 minute, dilution factor 10^1, first experiment): + | CPE test (virus replication in the cell wells) ([3]; 0.2 mM EGCG + virus, co-incubated 5 minute, dilution factor 10^1, second experiment): + | CPE test (virus replication in the cell wells) ([3]; 0.2 mM EGCG + virus, co-incubated 5 minute, dilution factor 10^2, first experiment): + | CPE test (virus replication in the cell wells) ([3]; 0.2 mM EGCG + virus, co-incubated 5 minute, dilution factor 10^2, second experiment): + | CPE test (virus replication in the cell wells) ([3]; 0.2 mM EGCG + virus, co-incubated 5 minute, dilution factor 10^3, first experiment): + | CPE test (virus replication in the cell wells) ([3]; 0.2 mM EGCG + virus, co-incubated 5 minute, dilution factor 10^3, second experiment): + | CPE test (virus replication in the cell wells) ([3]; 0.2 mM EGCG + virus, co-incubated 5 minute, dilution factor 10^4, first experiment): + | CPE test (virus replication in the cell wells) ([3]; 0.2 mM EGCG + virus, co-incubated 5 minute, dilution factor 10^4, second experiment): + | CPE test (virus replication in the cell wells) ([3]; 0.2 mM EGCG + virus, co-incubated 5 minute, dilution factor 10^5, first experiment): + | CPE test (virus replication in the cell wells) ([3]; 0.2 mM EGCG + virus, co-incubated 5 minute, dilution factor 10^5, second experiment): + | CPE test (virus replication in the cell wells) ([3]; 0.2 mM EGCG + virus, co-incubated 5 minute, dilution factor 10^6, first experiment): − and + | CPE test (virus replication in the cell wells) ([3]; 0.2 mM EGCG + virus, co-incubated 5 minute, dilution factor 10^6, second experiment): + and − | CPE test (virus replication in the cell wells) ([3]; 0.2 mM EGCG + virus, co-incubated 5 minute, dilution factor 10^7, first experiment): − | CPE test (virus replication in the cell wells) ([3]; 0.2 mM EGCG + virus, co-incubated 5 minute, dilution factor 10^7, second experiment): − | CPE test (virus replication in the cell wells) ([3]; 0.2 mM EGCG + virus, co-incubated 5 minute, dilution factor 10^8, first experiment): − | CPE test (virus replication in the cell wells) ([3]; 0.2 mM EGCG + virus, co-incubated 5 minute, dilution factor 10^8, second experiment): − | average inactivation efficiency against virus ([3]; 1 minute): 12.30% | average inactivation efficiency against virus ([3]; 5 minutes): 35.78% | CPE test per cell well ([3]; 1 mM EGCG + EV-D68 virus, 1 minute, dilution factor 10^1, wells 1-10): + | CPE test per cell well ([3]; 1 mM EGCG + EV-D68 virus, 1 minute, dilution factor 10^2, wells 1-10): + | CPE test per cell well ([3]; 1 mM EGCG + EV-D68 virus, 1 minute, dilution factor 10^3, wells 1-10): + | CPE test per cell well ([3]; 1 mM EGCG + EV-D68 virus, 1 minute, dilution factor 10^4, wells 1-10): + | CPE test per cell well ([3]; 1 mM EGCG + EV-D68 virus, 1 minute, dilution factor 10^5, wells 1-10): + | CPE test per cell well ([3]; 1 mM EGCG + EV-D68 virus, 1 minute, dilution factor 10^6, wells 1-10): + and − | CPE test per cell well ([3]; 1 mM EGCG + EV-D68 virus, 1 minute, dilution factor 10^7, wells 1-10): − | CPE test per cell well ([3]; 1 mM EGCG + EV-D68 virus, 1 minute, dilution factor 10^8, wells 1-10): − | CPE test (virus replication in cell wells) ([3]; 1 mM EGCG + EV-D68 virus, co-incubated 5 minute, third experiment, dilution factor 10^1): + | CPE test (virus replication in cell wells) ([3]; 1 mM EGCG + EV-D68 virus, co-incubated 5 minute, third experiment, dilution factor 10^2): + | CPE test (virus replication in cell wells) ([3]; 1 mM EGCG + EV-D68 virus, co-incubated 5 minute, third experiment, dilution factor 10^3): + | CPE test (virus replication in cell wells) ([3]; 1 mM EGCG + EV-D68 virus, co-incubated 5 minute, third experiment, dilution factor 10^4): + | CPE test (virus replication in cell wells) ([3]; 1 mM EGCG + EV-D68 virus, co-incubated 5 minute, third experiment, dilution factor 10^5): + | CPE test (virus replication in cell wells) ([3]; 1 mM EGCG + EV-D68 virus, co-incubated 5 minute, third experiment, dilution factor 10^6): + and − | CPE test (virus replication in cell wells) ([3]; 1 mM EGCG + EV-D68 virus, co-incubated 5 minute, third experiment, dilution factor 10^7): − | CPE test (virus replication in cell wells) ([3]; 1 mM EGCG + EV-D68 virus, co-incubated 5 minute, third experiment, dilution factor 10^8): − | CPE test (virus replication in cell wells) ([3]; 1 mM EGCG + virus, 1 minute, dilution factor 10^1, second experiment): + | CPE test (virus replication in cell wells) ([3]; 1 mM EGCG + virus, 1 minute, dilution factor 10^1, third experiment): + | CPE test (virus replication in cell wells) ([3]; 1 mM EGCG + virus, 1 minute, dilution factor 10^2, second experiment): + | CPE test (virus replication in cell wells) ([3]; 1 mM EGCG + virus, 1 minute, dilution factor 10^2, third experiment): + | CPE test (virus replication in cell wells) ([3]; 1 mM EGCG + virus, 1 minute, dilution factor 10^3, second experiment): + | CPE test (virus replication in cell wells) ([3]; 1 mM EGCG + virus, 1 minute, dilution factor 10^3, third experiment): +
